Test: xn = mol fraction of the nth substance listed
Conditions: for mass density: 101 kPa, Liquid, Vibrating tube method; for surface tension liquid-gas: Pendant drop shape

NCCO [2-aminoethan-1-ol] + O
Conditions | mass density [kg/m3] | surface tension liquid-gas [mN/m]
298.15 K, x1 = 0.1122 | 1010.9 | –
298.15 K, x1 = 0.1643 | 1016.3 | –
298.15 K, x1 = 0.2278 | 1021.3 | –
298.15 K, x1 = 0.3067 | 1024.8 | –
298.15 K, x1 = 0.4077 | 1026.3 | –
298.15 K, x1 = 0.5412 | 1024.7 | –
298.15 K, x1 = 0.7264 | 1020 | –
298.15 K, x1 = 1 | 1011.9 | –
303.15 K, x1 = 0.032 | – | 66.75
303.15 K, x1 = 0.069 | – | 64.74
303.15 K, x1 = 0.112 | – | 63.58
303.15 K, x1 = 0.1122 | 1008.4 | –
303.15 K, x1 = 0.164 | – | 61.74
303.15 K, x1 = 0.1643 | 1013.8 | –
303.15 K, x1 = 0.2278 | 1018.2 | –
303.15 K, x1 = 0.228 | – | 59.27
303.15 K, x1 = 0.3067 | 1021.4 | –
303.15 K, x1 = 0.307 | – | 57.42
303.15 K, x1 = 0.407 | – | 55.78
303.15 K, x1 = 0.4077 | 1022.8 | –
303.15 K, x1 = 0.541 | – | 53.43
303.15 K, x1 = 0.5412 | 1021 | –
303.15 K, x1 = 0.726 | – | 50.59
303.15 K, x1 = 0.7264 | 1016.2 | –
303.15 K, x1 = 1 | 1008 | 48.13
308.15 K, x1 = 0.1122 | 1006.2 | –
308.15 K, x1 = 0.1643 | 1011 | –
308.15 K, x1 = 0.2278 | 1015.2 | –
308.15 K, x1 = 0.3067 | 1018.2 | –
308.15 K, x1 = 0.4077 | 1019.3 | –
308.15 K, x1 = 0.5412 | 1017.3 | –
308.15 K, x1 = 0.7264 | 1012.3 | –
308.15 K, x1 = 1 | 1004 | –
313.15 K, x1 = 0.032 | – | 65.51
313.15 K, x1 = 0.069 | – | 63.29
313.15 K, x1 = 0.112 | – | 62.55
313.15 K, x1 = 0.1122 | 1003.5 | –
313.15 K, x1 = 0.164 | – | 60.27
313.15 K, x1 = 0.1643 | 1008.3 | –
313.15 K, x1 = 0.2278 | 1012.1 | –
313.15 K, x1 = 0.228 | – | 58.19
313.15 K, x1 = 0.3067 | 1014.7 | –
313.15 K, x1 = 0.307 | – | 56.35
313.15 K, x1 = 0.407 | – | 54.82
313.15 K, x1 = 0.4077 | 1015.7 | –
313.15 K, x1 = 0.541 | – | 52.41
313.15 K, x1 = 0.5412 | 1013.5 | –
313.15 K, x1 = 0.726 | – | 49.63
313.15 K, x1 = 0.7264 | 1008.5 | –
313.15 K, x1 = 1 | 1000 | 46.66
318.15 K, x1 = 0.1122 | 1001.1 | –
318.15 K, x1 = 0.1643 | 1005.3 | –
318.15 K, x1 = 0.2278 | 1009 | –
318.15 K, x1 = 0.3067 | 1011.4 | –
318.15 K, x1 = 0.4077 | 1012 | –
318.15 K, x1 = 0.5412 | 1009.7 | –
318.15 K, x1 = 0.7264 | 1004.5 | –
318.15 K, x1 = 1 | 996 | –
323.15 K, x1 = 0.032 | – | 64.31
323.15 K, x1 = 0.069 | – | 61.72
323.15 K, x1 = 0.112 | – | 61.16
323.15 K, x1 = 0.1122 | 998.1 | –
323.15 K, x1 = 0.164 | – | 58.82
323.15 K, x1 = 0.1643 | 1002.3 | –
323.15 K, x1 = 0.2278 | 1005.6 | –
323.15 K, x1 = 0.228 | – | 56.85
323.15 K, x1 = 0.3067 | 1007.8 | –
323.15 K, x1 = 0.307 | – | 55.15
323.15 K, x1 = 0.407 | – | 53.4
323.15 K, x1 = 0.4077 | 1008.3 | –
323.15 K, x1 = 0.541 | – | 51.14
323.15 K, x1 = 0.5412 | 1005.9 | –
323.15 K, x1 = 0.726 | – | 48.42
323.15 K, x1 = 0.7264 | 1000.6 | –
323.15 K, x1 = 1 | 992 | 45.58
328.15 K, x1 = 0.1122 | 995.5 | –
328.15 K, x1 = 0.1643 | 999.2 | –
328.15 K, x1 = 0.2278 | 1002.4 | –
328.15 K, x1 = 0.3067 | 1004.4 | –
328.15 K, x1 = 0.4077 | 1004.6 | –
328.15 K, x1 = 0.5412 | 1002 | –
328.15 K, x1 = 0.7264 | 996.7 | –
328.15 K, x1 = 1 | 988 | –
333.15 K, x1 = 0.032 | – | 62.46
333.15 K, x1 = 0.069 | – | 60.07
333.15 K, x1 = 0.112 | – | 59.39
333.15 K, x1 = 0.1122 | 992.3 | –
333.15 K, x1 = 0.164 | – | 57.29
333.15 K, x1 = 0.1643 | 996.1 | –
333.15 K, x1 = 0.2278 | 999 | –
333.15 K, x1 = 0.228 | – | 55.39
333.15 K, x1 = 0.3067 | 1000.7 | –
333.15 K, x1 = 0.307 | – | 53.61
333.15 K, x1 = 0.407 | – | 51.77
333.15 K, x1 = 0.541 | – | 49.62
333.15 K, x1 = 0.726 | – | 47
333.15 K, x1 = 1 | – | 44.63

— the NIST ThermoML archive (doi:10.1021/je2010038)
